Patent US20250179077A1, “QUINAZOLINE COMPOUNDS AND USES THEREOF AS INHIBITORS OF MUTANT KRAS PROTEINS” (AMGEN INC., priority 2022, published 2025)
pIC50: −log10 of the molar value. Where two headings read alike, the source gives them in different places. One block for each compound: values may come before it.

How the values were obtained:
[1] = molecular target: His-tagged KRAS G12D protein (Homo sapiens, UniProt P01116, G12D); experiment: KRAS G12D TR-FRET Assay; format: binding
Method: KRAS G12D TR-FRET Assay Compounds of interest were prepared in a dose-response titration in DMSO, and 80 nL were added via Labcyte Echo to each well of a 384-well plate (Perkin Elmer 6008280). The His-tagged KRAS G12D protein (Amgen) was diluted to 20 nM in Assay Buffer (20 mM HEPES, pH 7.4, 10 mM MgCl2, 50 mM NaCl, 0.1% BSA, 0.01% Tween-20, 10 μM GDP) and 2 uL was added to the appropriate wells of the 384-well plate. The plate was incubated for 30 minutes at room temperature. Biotinylated KRPep-2d substrate (Amgen) was diluted to 20 nM in Assay Buffer and 2 μL was added to all wells and incubated for 1 hour at room temperature. Detection Reagent (0.4 nM LANCE Eu-W1024 Anti-6×-His (Perkin Elmer AD0401), 5 nM streptavidin-d2 (Cisbio 610SADLA)) was prepared in Assay Buffer, then 4 μL was added to the plate and incubated for 1 hour at room temperature. Plates were read using PerkinElmer EnVision (ex: 320 nm, em1: 665 nm, em2: 615 nm) and em1/em2 data was used to generate curve fits using a 4-parameter logistic model to calculate IC50 values.

[2] = molecular target: GDP-bound KRAS protein (aa 1-169), containing both G12D and C118A amino acid substitutions (Homo sapiens, UniProt P01116, C118A/G12D); experiment: KRAS G12D Coupled Nucleotide Exchange Assay; format: biochemical
Chain of GDP-bound KRAS protein (aa 1-169), containing both G12D and C118A amino acid substitutions (P01116 1-169 isoform P01116-2 G12D/C118A): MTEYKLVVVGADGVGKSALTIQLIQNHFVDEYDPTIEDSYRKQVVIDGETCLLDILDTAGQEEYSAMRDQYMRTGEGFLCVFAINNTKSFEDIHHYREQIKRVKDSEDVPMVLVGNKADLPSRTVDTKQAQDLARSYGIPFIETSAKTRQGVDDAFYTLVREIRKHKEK
Method: KRAS G12D Coupled Nucleotide Exchange Assay
Following compound pre-incubation, purified SOS protein (aa 564-1049) and GTP (Roche 10106399001) were added to the assay wells and incubated for an additional 30 min. […] The assay plates were then read on a PerkinElmer EnVision Multilabel Reader, using AlphaScreen® technology, and data were analyzed using a 4-parameter logistic model to calculate IC50 values.

[3] = test system: Phosphorylation of ERK1/2 in AsPC-1 cells; experiment: Phospho-ERK1/2 MSD Assay; format: cell-based
Method: AsPC-1 (ATCC® CRL-1682™) cells were cultured in RPMI 1640 Medium (ThermoFisher Scientific 11875093) containing 10% fetal bovine serum (ThermoFisher Scientific 16000044) and Ix penicillin-streptomycin-glutamine (ThermoFisher Scientific 10378016). Sixteen hours prior to compound treatment, AsPC-1 cells were seeded in 96-well cell culture plates at a density of 25,000 cells/well and incubated at 37° C., 5% CO2. A compound dose-response titration was diluted in growth media, added to appropriate wells of a cell culture plate, and then incubated at 37° C., 5% CO2 for 2 h. Following compound treatment, cells were washed with ice-cold Dulbecco's phosphate-buffered saline, no Ca^2+ or Mg^2+ (ThermoFisher Scientific 14190144), and then lysed in RIPA buffer (50 mM Tris-HCl pH 7.5, 1% Igepal, 0.5% sodium deoxycholate, 150 mM NaCl, and 0.5% sodium dodecyl sulfate) containing protease inhibitors (Roche 4693132001) and phosphatase inhibitors (Roche 4906837001). Phosphorylation of ERK1/2 in compound-treated lysates was assayed using Phospho-ERK1/2 Whole Cell Lysate kits (Meso Scale Discovery K151DWD) according to the manufacturer's protocol. Assay plates were read on a Meso Scale Discovery Sector Imager 6000, and data were analyzed using a 4-parameter logistic model to calculate IC50 values.

[4] = Homo sapiens, ASPC1, 2 h, read-out: 2 h p-ERK (AsPC-1 cells), IC50, AsPC-1 cells, 2 h compound treatment

Chain of His-tagged KRAS G12D protein (P01116 1-188 isoform P01116-2 G12D): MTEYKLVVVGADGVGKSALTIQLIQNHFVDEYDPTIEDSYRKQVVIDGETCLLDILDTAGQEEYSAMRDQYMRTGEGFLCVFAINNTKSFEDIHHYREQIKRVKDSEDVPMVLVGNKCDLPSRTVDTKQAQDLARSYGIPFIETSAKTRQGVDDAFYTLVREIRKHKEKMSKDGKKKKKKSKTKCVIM

Compound: CCc1c(F)ccc2cc(O)cc(-c3c(F)cc4c(N5CCC[C@@](C)(O)C5)nc(OC[C@@]56CCCN5C[C@H](F)C6)nc4c3F)c12 (atropisomer, axis not shown) [Example 3, (3R)-1-(7-(8-Ethyl-7-fluoro-3-hydroxynaphthalen-1-yl)-6,8-difluoro-2-(((2R,7a.S)-2-fluorotetrahydro-1H-pyrrolizin-7a(5H)-yl)methoxy)quinazolin-4-yl)-3-methylpiperidin-3-ol]
pIC50 [1]: 6.90
pIC50 [2]: 6.87

Compound: CCc1c(F)ccc2cc(O)cc(-c3c(F)cc4c(N5[C@H]6CCC(O)[C@@H]5CC6)nc(OC[C@@]56CCCN5C[C@H](F)C6)nc4c3F)c12 (mixture of isomers) [Example 55, rac-(1S,5R)-8-(7-(8-Ethyl-7-fluoro-3-hydroxynaphthalen-1-yl)-6,8-difluoro-2-(((2R,7aS)-2-fluorotetrahydro-1H-pyrrolizin-7a(5H)-yl)methoxy)quinazolin-4-yl)-8-azabicyclo[3.2.1]octan-2-ol]
pIC50 [3, 4]: 6.09
pIC50 [1]: 7.68
IC50 [2]: 11 nM

Compound: CCc1c(F)ccc2cc(O)cc(-c3c(F)cc4c(N5C[C@@H]6CO[C@@H](C6)C5)nc(OC[C@@]56CCCN5C[C@H](F)C6)nc4c3F)c12 (racemic) [Example 36, rac-4-(4-((1R,5S)-6-Oxa-3-azabicyclo[3.2.1]octan-3-yl)-6,8-difluoro-2-(((2R,7aS)-2-fluorotetrahydro-1H-pyrrolizin-7a(5H)-yl)methoxy)quinazolin-7-yl)-5-ethyl-6-fluoronaphthalen-2-ol]
pIC50 [3, 4]: 5.97
pIC50 [1]: 7.70
IC50 [2]: 12 nM

Compound: CCc1c(F)ccc2cc(O)cc(-c3c(F)cc4c(N5CCCC6(CNC(=O)O6)C5)nc(OC[C@@]56CCCN5C[C@H](F)C6)nc4c3F)c12 (single isomer, unassigned) [Example 58]
pIC50 ([3]; read-out: 2 h p-ERK (AsPC-1 cells), IC50, AsPC-1 cells, 2 h compound treatment): 8.52
pIC50 [1]: 9.00

Compound: CCc1c(F)ccc2cc(N)cc(-c3c(F)cc4c(N5CCC[C@@](C)(O)C5)nc(OC[C@@]56CCCN5C[C@H](F)C6)nc4c3F)c12 (single isomer, unassigned) [Example 61]
pIC50 [1]: 6.14
IC50 [2]: 272 nM

Compound: C#Cc1c(F)ccc2cc(N)cc(-c3c(F)cc4c(N5CCC[C@@](C)(O)C5)nc(OC[C@@]56CCCN5C[C@H](F)C6)nc4c3F)c12 (single isomer, unassigned) [Example 63]
pIC50 [1]: 6.65
IC50 [2]: 138 nM

Compound: C#Cc1c(F)ccc2cc(N)cc(-c3c(F)cc4c(N5CCC[C@@](C)(O)C5)nc(OC[C@@]56CCCN5C[C@H](F)C6)nc4c3F)c12 (single isomer, unassigned) [Example 64]
pIC50 [3, 4]: 7.13

Compound: C#Cc1c(F)ccc2cccc(-c3c(F)cc4c(N5CCC[C@@](C)(O)C5)nc(OC[C@@]56CCCN5C[C@H](F)C6)nc4c3F)c12 (single isomer, unassigned) [Example 66]
pIC50 [1]: 6.18
IC50 [2]: 589 nM

Compound: CCc1c(F)ccc2cc(O)cc(-c3ccc4c(N5CCC(C(N)=O)C5)nc(OC[C@@]56CCCN5C[C@H](F)C6)nc4c3F)c12 (stereo partly drawn) [Example 8, 1-(7-(8-Ethyl-7-fluoro-3-hydroxynaphthalen-1-yl)-8-fluoro-2-(((2R,7aS)-2-fluorotetrahydro-1H-pyrrolizin-7a(5H)-yl)methoxy)quinaquinazolin-4-yl)pyrrolidine-3-carboxamide]
pIC50 [1]: 7.66
IC50 [2]: 11 nM

Compound: Cc1cc2[nH]ncc2c(-c2c(F)cc3c(N4CCC[C@@](C)(O)C4)nc(OC[C@@]45CCCN4C[C@H](F)C5)nc3c2F)c1Cl [Example 48, (3R)-1-(7-(5-Chloro-6-methyl-1H-indazol-4-yl)-6,8-difluoro-2-(((2R,7a.S)-2-fluorotetrahydro-1H-pyrrolizin-7a(5H)-yl)methoxy)quinazolin-4-y1)-3-methylpiperidin-3-ol]
pIC50 [1]: 7.66
IC50 [2]: 23 nM

More lines, in order of rising pIC50 [1], values ahead:

pIC50 [1]: 6.36
IC50 [2]: 87 nM
Compound: CCc1c(F)ccc2cc(O)cc(-c3c(F)cc4c(N5CCCC6(CNC(=O)O6)C5)nc(OC[C@@]56CCCN5C[C@H](F)C6)nc4c3F)c12 (single isomer, unassigned) [Example 57]

pIC50 [1]: 6.56
IC50 [2]: 302 nM
Compound: CCc1c(F)ccc2cc(O)cc(-c3c(O)cc4c(N5CCC[C@@](C)(O)C5)nc(OC[C@@]56CCCN5C[C@H](F)C6)nc4c3F)c12 (single isomer, unassigned) [Example 28]

pIC50 [1]: 6.67
IC50 [2]: 186 nM
Compound: C#Cc1cccc2cc(O)cc(-c3c(F)cc4c(N5CCC[C@@](C)(O)C5)nc(OC[C@@]56CCCN5C[C@H](F)C6)nc4c3F)c12 (single isomer, unassigned) [Example 11]

pIC50 [1]: 6.91
IC50 [2]: 43 nM
Compound: CCc1c(F)ccc2cc(O)cc(-c3c(F)cc4c(N5CCOCC(C)(O)C5)nc(OC[C@@]56CCCN5C[C@H](F)C6)nc4c3F)c12 (single isomer, unassigned) [Example 35]

pIC50 [1]: 7.02
IC50 [2]: 58 nM
Compound: CCc1c(F)ccc2cc(O)cc(-c3c(F)cc4c(N5CCCC(O)(C(F)F)C5)nc(OC[C@@]56CCCN5C[C@H](F)C6)nc4c3F)c12 (single isomer, unassigned) [Example 22]

pIC50 [1]: 7.15
IC50 [2]: 80 nM
Compound: CCc1c(F)ccc2cc(O)cc(-c3ccc4c(N5CCCC(O)(C(F)F)C5)nc(OC[C@@]56CCCN5C[C@H](F)C6)nc4c3F)c12 (single isomer, unassigned) [Example 24]

pIC50 [1]: 7.40
IC50 [2]: 40 nM
Compound: CCc1c(F)ccc2cc(O)cc(-c3c(F)cc4c(N5CCCC(O)(C(F)F)C5)nc(OC[C@@]56CCCN5C[C@H](F)C6)nc4c3F)c12 (single isomer, unassigned) [Example 21]

pIC50 [1]: 8.00
IC50 [2]: 10 nM
Compound: Cc1c(Cl)cc2[nH]ncc2c1-c1c(F)cc2c(N3CCC[C@@](C)(O)C3)nc(OC[C@@]34CCCN3C[C@H](F)C4)nc2c1F [Example 49, (3R)-1-(7-(6-Chloro-5-methyl-1H-indazol-4-yl)-6,8-difluoro-2-(((2R,7aS)-2-fluorotetrahydro-1H-pyrrolizin-7a(5H)-yl)methoxy)quinazolin-4-yl)-3-methylpiperidin-3-ol]

pIC50 [3, 4]: 6.91
pIC50 [1]: 8.05
IC50 [2]: 8 nM
Compound: C[C@@H]1C[C@@H]1c1c(Cl)cc2[nH]ncc2c1-c1ccc2c(N3CCC[C@@](C)(O)C3)nc(OC[C@@]34CCCN3C[C@H](F)C4)nc2c1F (atropisomer, axis not shown; (aS)) [Example 110, (R)-1-((R)-7-(6-Chloro-5-((1S,2R)-2-methylcyclopropyl)-1H-indazol-4-yl)-8-fluoro-2-(((2R,7aS)-2-fluorotetrahydro-1H-pyrrolizin-7a(5H)-yl)methoxy)quinazolin-4-yl)-3-methylpiperidin-3-ol]

pIC50 [3, 4]: 6.81
pIC50 [1]: 8.05
IC50 [2]: 6 nM
Compound: Cc1cc2[nH]ncc2c(-c2c(F)cc3c(N4CCC[C@@](C)(O)C4)nc(OC[C@@]45CCCN4C[C@H](F)C5)nc3c2F)c1[C@H]1C[C@H]1C (atropisomer, axis not shown; (aS)) [Example 121, (R)-1-((S)-6,8-Difluoro-2-(((2R,7aS)-2-fluorotetrahydro-1H-pyrrolizin-7a(5H)-yl)methoxy)-7-(6-methyl-5-((1S,2R)-2-methylcyclopropyl)-1H-indazol-4-yl)quinazolin-4-yl)-3-methylpiperidin-3-ol bis(2,2,2-trifluoroacetate)]

pIC50 [3, 4]: 6.90
pIC50 [1]: 8.30
IC50 [2]: 4 nM
Compound: Cc1cc2[nH]ncc2c(-c2ccc3c(N4CCC[C@](O)(CF)C4)nc(OC[C@@]45CCCN4C[C@H](F)C5)nc3c2F)c1[C@H]1C[C@H]1C (atropisomer, axis not shown; (aS)) [Example 118, (R)-1-((S)-8-Fluoro-2-(((2R,7aS)-2-fluorotetrahydro-1H-pyrrolizin-7a(5H)-yl)methoxy)-7-(6-methyl-5-((1S,2R)-2-methylcyclopropyl)-1H-indazol-4-yl)quinazolin-4-yl)-3-(fluoromethyl)piperidin-3-ol]
